# In ChEMBL document CHEMBL1795221, “In vitro and in vivo anticancer activity evaluation of ursolic acid derivatives” (Eur J Med Chem, 2011):
# pIC50: −log10 of the molar value.
# Tested on: HeLa
# Experiment: cells
# Settings: Homo sapiens, 24 h
# Description: Cytotoxicity against human HeLa cells after 24 hrs by MTT assay
row,pIC50,Structure (SMILES)
1,< 4.00,CCOC(=O)[C@]12CC[C@@H](C)[C@H](C)[C@H]1C1=CC[C@@H]3[C@@]4(C)CC[C@H](OC(C)=O)C(C)(C)[C@@H]4CC[C@@]3(C)[C@]1(C)CC2
2,4.20,CCCCOC(=O)[C@]12CC[C@@H](C)[C@H](C)[C@H]1C1=CC[C@@H]3[C@@]4(C)CC[C@H](O)C(C)(C)[C@@H]4CC[C@@]3(C)[C@]1(C)CC2
3,4.62,C[C@H]1[C@H](C)CC[C@]2(C(=O)N3CCN(CCOCCO)CC3)CC[C@]3(C)C(=CC[C@@H]4[C@@]5(C)CC[C@H](O)C(C)(C)[C@@H]5CC[C@]43C)[C@H]12
4,4.17,C[C@H]1[C@H](C)CC[C@]2(C(=O)N3CCC(CCO)CC3)CC[C@]3(C)C(=CC[C@@H]4[C@@]5(C)CC[C@H](O)C(C)(C)[C@@H]5CC[C@]43C)[C@H]12

# Tested on: BGC-823
# Experiment: Cytotoxicity against human BGC823 cells after 24 hrs by MTT assay
# Format: functional, cell-based
# Settings: BGC-823, 24 h
row,Structure (SMILES),pIC50
1,CCOC(=O)[C@]12CC[C@@H](C)[C@H](C)[C@H]1C1=CC[C@@H]3[C@@]4(C)CC[C@H](OC(C)=O)C(C)(C)[C@@H]4CC[C@@]3(C)[C@]1(C)CC2,< 4.00
2,CCCCOC(=O)[C@]12CC[C@@H](C)[C@H](C)[C@H]1C1=CC[C@@H]3[C@@]4(C)CC[C@H](O)C(C)(C)[C@@H]4CC[C@@]3(C)[C@]1(C)CC2,< 4.00
3,C[C@H]1[C@H](C)CC[C@]2(C(=O)N3CCN(CCOCCO)CC3)CC[C@]3(C)C(=CC[C@@H]4[C@@]5(C)CC[C@H](O)C(C)(C)[C@@H]5CC[C@]43C)[C@H]12,4.46
4,C[C@H]1[C@H](C)CC[C@]2(C(=O)N3CCC(CCO)CC3)CC[C@]3(C)C(=CC[C@@H]4[C@@]5(C)CC[C@H](O)C(C)(C)[C@@H]5CC[C@]43C)[C@H]12,< 4.00

# Tested on: not listed separately
# Experiment: Cytotoxicity against human HELF cells after 24 hrs by MTT assay
# Format: cell-based
# Settings: not given
row,Structure (SMILES),pIC50
1,CCOC(=O)[C@]12CC[C@@H](C)[C@H](C)[C@H]1C1=CC[C@@H]3[C@@]4(C)CC[C@H](OC(C)=O)C(C)(C)[C@@H]4CC[C@@]3(C)[C@]1(C)CC2,< 4.00
2,CCCCOC(=O)[C@]12CC[C@@H](C)[C@H](C)[C@H]1C1=CC[C@@H]3[C@@]4(C)CC[C@H](O)C(C)(C)[C@@H]4CC[C@@]3(C)[C@]1(C)CC2,< 4.00
3,C[C@H]1[C@H](C)CC[C@]2(C(=O)N3CCN(CCOCCO)CC3)CC[C@]3(C)C(=CC[C@@H]4[C@@]5(C)CC[C@H](O)C(C)(C)[C@@H]5CC[C@]43C)[C@H]12,4.55
4,C[C@H]1[C@H](C)CC[C@]2(C(=O)N3CCC(CCO)CC3)CC[C@]3(C)C(=CC[C@@H]4[C@@]5(C)CC[C@H](O)C(C)(C)[C@@H]5CC[C@]43C)[C@H]12,< 4.00

# Tested on: SH-SY5Y
# Experiment: Cytotoxicity against human SH-SY5Y cells after 24 hrs by MTT assay
# Format: functional, cell-based
# Settings: not given
row,Structure (SMILES),pIC50
1,CCOC(=O)[C@]12CC[C@@H](C)[C@H](C)[C@H]1C1=CC[C@@H]3[C@@]4(C)CC[C@H](OC(C)=O)C(C)(C)[C@@H]4CC[C@@]3(C)[C@]1(C)CC2,< 4.00
2,CCCCOC(=O)[C@]12CC[C@@H](C)[C@H](C)[C@H]1C1=CC[C@@H]3[C@@]4(C)CC[C@H](O)C(C)(C)[C@@H]4CC[C@@]3(C)[C@]1(C)CC2,< 4.00
3,C[C@H]1[C@H](C)CC[C@]2(C(=O)N3CCN(CCOCCO)CC3)CC[C@]3(C)C(=CC[C@@H]4[C@@]5(C)CC[C@H](O)C(C)(C)[C@@H]5CC[C@]43C)[C@H]12,4.52
4,C[C@H]1[C@H](C)CC[C@]2(C(=O)N3CCC(CCO)CC3)CC[C@]3(C)C(=CC[C@@H]4[C@@]5(C)CC[C@H](O)C(C)(C)[C@@H]5CC[C@]43C)[C@H]12,< 4.00

# Tested on: HepG2
# Experiment: cells
# Settings: Homo sapiens, HepG2, 24 h
# Description: Cytotoxicity against human HepG2 cells after 24 hrs by MTT assay
row,pIC50,Structure (SMILES)
1,< 4.00,CCOC(=O)[C@]12CC[C@@H](C)[C@H](C)[C@H]1C1=CC[C@@H]3[C@@]4(C)CC[C@H](OC(C)=O)C(C)(C)[C@@H]4CC[C@@]3(C)[C@]1(C)CC2
2,< 4.00,CCCCOC(=O)[C@]12CC[C@@H](C)[C@H](C)[C@H]1C1=CC[C@@H]3[C@@]4(C)CC[C@H](O)C(C)(C)[C@@H]4CC[C@@]3(C)[C@]1(C)CC2
3,4.44,C[C@H]1[C@H](C)CC[C@]2(C(=O)N3CCN(CCOCCO)CC3)CC[C@]3(C)C(=CC[C@@H]4[C@@]5(C)CC[C@H](O)C(C)(C)[C@@H]5CC[C@]43C)[C@H]12
4,< 4.00,C[C@H]1[C@H](C)CC[C@]2(C(=O)N3CCC(CCO)CC3)CC[C@]3(C)C(=CC[C@@H]4[C@@]5(C)CC[C@H](O)C(C)(C)[C@@H]5CC[C@]43C)[C@H]12
